Measurements published in US11345912B2, “Directed evolution of multivalent glycopeptides that tightly bind to target proteins” (Brandeis University, priority 2013, dated 2022).
*1 amine or outer side, *2 acyl side, *3 side chain or, on linkers, in order; H or OH if unused. Where a SMILES comes first, the peptide text is derived from it. [ ]: non-standard residue; d: D form. The star is where a group is joined. X1 = O=C([C@H](CCc1cn(C2CCC(OC3O[C@H](CO[C@H]4O[C@H](CO[C@H]5O[C@H](CO)[C@@H](O)[C@H](O)[C@@H]5O[C@H]5O[C@H](CO)[C@@H](O)[C@H](O)[C@@H]5O)[C@@H](O)[C@H](O[C@H]5O[C@H](CO)[C@@H](O)[C@H](O)[C@@H]5O[C@H]5O[C@H](CO)[C@@H](O)[C@H](O)[C@@H]5O)[C@@H]4O)[C@@H](O)[C@H](O[C@H]4O[C@H](CO)[C@@H](O)[C@H](O)[C@@H]4O[C@H]4O[C@H](CO)[C@@H](O)[C@H](O)[C@@H]4O[C@H]4O[C@H](CO)[C@@H](O)[C@H](O)[C@@H]4O)[C@@H]3O)CC2)nn1)N[*:1])[*:2]; For = O=C*

System: 2G12
Assay: Binding curve and KD determination of 2G12-glycopeptide interaction (radiolabeled glycopeptide, protein G magnetic bead capture, scintillation counting)
Outline: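 Radiolabeled glycopeptide (<4 pmol) from PURE-system translation with click glycosylation was incubated with 100 nM 2G12 at room temperature. Complexes were captured on protein G beads and eluted at 70° C. Bound and unbound fractions were counted by scintillation, run at least in triplicate, and KD derived from binding curves.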

[1] = Table 6 mutational analysis, radioactive bead binding assay
[2] = Table 6 mutational analysis, radioactive bead binding assay, ribosomally translated

Compound | Fmax [%] [1] [%] | Kd [2] [nM] | binding to 2G12 after truncation (in words) (truncated clones, Table 6) | Kd (Table 4, ribosomally translated radiolabeled glycopeptide with His6/FLAG tag, room temperature, fit Fbound=(Fmax[2G12])/(KD+[2G12]), error = standard error of fit) [nM]
CC[C@H](C)[C@H](NC(=O)[C@H](CO)NC(=O)[C@H](CCCNC(=N)N)NC(=O)[C@H](CCc1cn(C2CCC(OC3O[C@H](CO[C@H]4O[C@H](CO[C@H]5O[C@H](CO)[C@@H](O)[C@H](O)[C@@H]5O[C@H]5O[C@H](CO)[C@@H](O)[C@H](O)[C@@H]5O)[C@@H](O)[C@H](O[C@H]5O[C@H](CO)[C@@H](O)[C@H](O)[C@@H]5O[C@H]5O[C@H](CO)[C@@H](O)[C@H](O)[C@@H]5O)[C@@H]4O)[C@@H](O)[C@H](O[C@H]4O[C@H](CO)[C@@H](O)[C@H](O)[C@@H]4O[C@H]4O[C@H](CO)[C@@H](O)[C@H](O)[C@@H]4O[C@H]4O[C@H](CO)[C@@H](O)[C@H](O)[C@@H]4O)[C@@H]3O)CC2)nn1)NC=O)C(=O)N1CCC[C@H]1C(=O)N[C@@H](Cc1c[nH]c2ccccc12)C(=O)N[C@@H](Cc1ccc(O)cc1)C(=O)N[C@H](C(=O)N[C@@H](Cc1ccc(O)cc1)C(=O)N[C@@H](CCCNC(=N)N)C(=O)N[C@@H](Cc1c[nH]c2ccccc12)C(=O)N[C@@H](CC(C)C)C(=O)N1CCC[C@H]1C(=O)N[C@@H](CC(N)=O)C(=O)NCC(=O)N[C@@H](CO)C(=O)NCC(=O)N[C@@H](CO)C(=O)N[C@@H](CC(C)C)C(=O)NCC(=O)N[C@@H](Cc1c[nH]cn1)C(=O)N[C@@H](Cc1c[nH]cn1)C(=O)N[C@@H](Cc1c[nH]cn1)C(=O)N[C@@H](Cc1c[nH]cn1)C(=O)N[C@@H](Cc1c[nH]cn1)C(=O)N[C@@H](Cc1c[nH]cn1)C(=O)N[C@@H](CCCNC(=N)N)C(=O)N[C@@H](CC(=O)O)C(=O)N[C@@H](Cc1ccc(O)cc1)C(=O)N[C@@H](CCCCN)C(=O)N[C@@H](CC(=O)O)C(=O)N[C@@H](CC(=O)O)C(=O)N[C@@H](CC(=O)O)C(=O)N[C@@H](CC(=O)O)C(=O)N[C@@H](CCCCN)C(=O)O)[C@@H](C)O (stereo partly drawn) [Clone 10V1-Δ19, XRSIPWYTYRWLPN] (For-[X1]RSIPWYTYRWLPNGSGSLGHHHHHHRDYKDDDDK-OH; C-terminus assumed) | 20 | ~7.5 | tight binding | –
For-[X1]PNCITQQDVR[X1]TSIPYTYTWPGSGSLGHHHHHHRDYKDDDDK-OH [Clone 10F3-Δ11, XPNCITQQDVRXTSIPYTYTWP] | 32 | 25 | – | –
CC[C@H](C)[C@H](NC(=O)[C@H](CC(=O)O)NC(=O)[C@@H]1CCCN1C(=O)[C@H](C)NC(=O)[C@H](C)NC(=O)[C@H](CO)NC(=O)[C@@H](NC(=O)[C@@H]1CCCN1C(=O)[C@H](Cc1c[nH]cn1)NC(=O)[C@H](CCc1cn(C2CCC(OC3O[C@H](CO[C@H]4O[C@H](CO[C@H]5O[C@H](CO)[C@@H](O)[C@H](O)[C@@H]5O[C@H]5O[C@H](CO)[C@@H](O)[C@H](O)[C@@H]5O)[C@@H](O)[C@H](O[C@H]5O[C@H](CO)[C@@H](O)[C@H](O)[C@@H]5O[C@H]5O[C@H](CO)[C@@H](O)[C@H](O)[C@@H]5O)[C@@H]4O)[C@@H](O)[C@H](O[C@H]4O[C@H](CO)[C@@H](O)[C@H](O)[C@@H]4O[C@H]4O[C@H](CO)[C@@H](O)[C@H](O)[C@@H]4O[C@H]4O[C@H](CO)[C@@H](O)[C@H](O)[C@@H]4O)[C@@H]3O)CC2)nn1)NC(=O)[C@H](C)NC(=O)[C@H](Cc1c[nH]cn1)NC(=O)[C@H](Cc1ccccc1)NC(=O)[C@H](Cc1ccc(O)cc1)NC(=O)[C@H](Cc1c[nH]cn1)NC(=O)[C@H](C)NC(=O)[C@H](CO)NC(=O)[C@H](CCCNC(=N)N)NC(=O)[C@H](CO)NC(=O)[C@H](CC(C)C)NC(=O)[C@H](CCc1cn(C2CCC(OC3O[C@H](CO[C@H]4O[C@H](CO[C@H]5O[C@H](CO)[C@@H](O)[C@H](O)[C@@H]5O[C@H]5O[C@H](CO)[C@@H](O)[C@H](O)[C@@H]5O)[C@@H](O)[C@H](O[C@H]5O[C@H](CO)[C@@H](O)[C@H](O)[C@@H]5O[C@H]5O[C@H](CO)[C@@H](O)[C@H](O)[C@@H]5O)[C@@H]4O)[C@@H](O)[C@H](O[C@H]4O[C@H](CO)[C@@H](O)[C@H](O)[C@@H]4O[C@H]4O[C@H](CO)[C@@H](O)[C@H](O)[C@@H]4O[C@H]4O[C@H](CO)[C@@H](O)[C@H](O)[C@@H]4O)[C@@H]3O)CC2)nn1)NC(=O)[C@H](CC(C)C)NC(=O)[C@H](Cc1ccccc1)NC(=O)[C@H](C)NC(=O)[C@@H]1CCCN1C(=O)[C@H](CO)NC(=O)[C@@H]1CCCN1C(=O)[C@H](CS)NC(=O)[C@H](C)NC(=O)[C@@H](NC(=O)[C@H](CCC(N)=O)NC(=O)[C@H](CCc1cn(C2CCC(OC3O[C@H](CO[C@H]4O[C@H](CO[C@H]5O[C@H](CO)[C@@H](O)[C@H](O)[C@@H]5O[C@H]5O[C@H](CO)[C@@H](O)[C@H](O)[C@@H]5O)[C@@H](O)[C@H](O[C@H]5O[C@H](CO)[C@@H](O)[C@H](O)[C@@H]5O[C@H]5O[C@H](CO)[C@@H](O)[C@H](O)[C@@H]5O)[C@@H]4O)[C@@H](O)[C@H](O[C@H]4O[C@H](CO)[C@@H](O)[C@H](O)[C@@H]4O[C@H]4O[C@H](CO)[C@@H](O)[C@H](O)[C@@H]4O[C@H]4O[C@H](CO)[C@@H](O)[C@H](O)[C@@H]4O)[C@@H]3O)CC2)nn1)NC=O)[C@@H](C)O)[C@@H](C)O)C(=O)N[C@@H](CO)C(=O)NCC(=O)N[C@@H](CO)C(=O)NCC(=O)N[C@@H](CO)C(=O)N[C@@H](CC(C)C)C(=O)NCC(=O)N[C@@H](Cc1c[nH]cn1)C(=O)N[C@@H](Cc1c[nH]cn1)C(=O)N[C@@H](Cc1c[nH]cn1)C(=O)N[C@@H](Cc1c[nH]cn1)C(=O)N[C@@H](Cc1c[nH]cn1)C(=O)N[C@@H](Cc1c[nH]cn1)C(=O)N[C@@H](CCCNC(=N)N)C(=O)N[C@@H](CC(=O)O)C(=O)N[C@@H](Cc1ccc(O)cc1)C(=O)N[C@@H](CCCCN)C(=O)N[C@@H](CC(=O)O)C(=O)N[C@@H](CC(=O)O)C(=O)N[C@@H](CC(=O)O)C(=O)N[C@@H](CC(=O)O)C(=O)N[C@@H](CCCCN)C(=O)O (stereo partly drawn) [Clone 6E, XQTACPSPAFLXLSRSAHYFHAXHPTSAAPDIS] | – | – | – | > 128
